Results taken from patent publication US4008323A, “Method of reducing cholesterol using certain aromatic keto acids” (Pierre Fabre S.A., priority 1974, dated 1977).
Where two headings read alike, the source gives them in different places.

Tests used:
[1] = test system: total blood cholesterol; test: Total blood cholesterol in rats on a normal diet (hypocholesterolemizing); assay type: in vivo; conditions: 300 mg/kg oral, 4 consecutive days; 5th day, fasted 16 hours
Method: One lot of rats served as control.
The sampling was effected on the 5th day after 16 hours fasting, by cardiac puncture and the total blood cholesterol determination was effected by the Liebermann-Burchardt colorimetric method.

[2] = Solubility properties; assay type: physicochemical; conditions: for Solubility in ethyl alcohol: ethyl alcohol / ethanol / alcohol
[3] = Acute toxicity in mice, oral LD50 (method of Miller & Tainter); conditions: mouse, in vivo, mortality determined 48 hours after administration
Method: The chemical compounds previously described were submitted to toxicity tests. It was determined in mice by oral administration and was calculated in accordance with the method of MILLER & TAINTER. It is generally low and greater than 1000 mg/kg.

[4] = test system: carrageenin edema; test: Carrageenin edema test in rats (antiinflammatory); assay type: in vivo; conditions: for change in vivo at 300 mg/kg / change in vivo at 75 mg/kg / change in vivo at 200 mg/kg / change in vivo at 30 mg/kg / change in vivo at 50 mg/kg / change in vivo at 100 mg/kg: Rattus norvegicus; for change in vivo at 300 mg/kg: 300 mg/kg oral; for % var. / action (variation of paw volume increase vs controls) / change in vivo at 75 mg/kg: 75 mg/kg oral
Method: The antiinflammatory properties were shown by the carrageenin edema test in rats, the products having been administered orally 1 hour before the intrapodal injection of 0.05 ml of a 2% suspension of carrageenin; the volume of the rat's paw was measured by plethysmoscopy 3, 4 and 6 hours afterwards.
The experiment concerned for each lot […]; one lot of animals receiving only the vehicle (2 ml/100 g of Tween + water) which served for the administration of the products, constituted the control lot. The following table sets forth the results obtained: […]

[5] = test system: writhings induced by phenylbenzoquinone; test: Writhing test, phenylbenzoquinone (analgetic); assay type: in vivo, mice; conditions: 300 mg/kg oral, t + 35 to t + 40 min
Method: The analgetic properties of certain compounds were shown in mice by the "writhing test" method, that is to say with reference to the writhings induced by phenylbenzoquinone. The administration of the product is effected orally at time t; it is followed by the intraperitoneal injection of 0.2% phenylbenzoquinone at t + 30 min. The determination of the writhings is effected from t + 35 min. to t + 40 min. One lot of animals receiving only the vehicle (5% Tween 80 in 0.9% NaCl) serves as control.

[6] = test system: writhings induced by acetic acid; test: Writhing test, acetic acid (analgetic); assay type: in vivo, male mouse; conditions: 200 mg/kg by mouth, t + 60 to t + 70 min
Method: The administration of the compounds is effected by mouth at the time t. […] The determination of the writhings is effected from t + 60 min. to t + 70 min. The vehicle used for the administration of the products is a 5% solution of Tween 80 in 0.9% NaCl which will serve as control.

[7] = read-out: % mean variation of the volume of the paw at 3, 4 and 6 hrs
[8] = 3 hrs, read-out: % increase in volume of the paw, mean (m)
[9] = 4 hrs, read-out: % increase in volume of the paw, mean (m)
[10] = 6 hrs, read-out: % increase in volume of the paw, mean (m)
[11] = 200 mg/kg oral, + 3 hrs, read-out: % increase in volume of the paw, mean (m)
[12] = 200 mg/kg oral, + 3 hrs, read-out: Action (variation of paw volume increase vs controls)
[13] = 200 mg/kg oral, + 4 hrs, read-out: % increase in volume of the paw, mean (m)
[14] = 200 mg/kg oral, + 4 hrs, read-out: Action (variation of paw volume increase vs controls)
[15] = 200 mg/kg oral, + 6 hrs, read-out: % increase in volume of the paw, mean (m)
[16] = 200 mg/kg oral, + 6 hrs, read-out: Action (variation of paw volume increase vs controls)

C=C(CC(=O)c1ccc(F)cc1)C(=O)O [F 1376, 2-methylene 4-oxo 4-fluorophenyl butyric acid]
Total blood cholesterol, M [1]: 0,66
Solubility in ethyl alcohol [2]: 20%
Solubility in propylene glycol ([2]; propylene glycol): 10%
Solubility in water ([2]; water, in words): insoluble
LD50 at 48 h [3]: 1400 mg/kg
change in vivo at 300 mg/kg ([4]; + 3 hrs, read-out: % increase in volume of the paw, mean (m)): 50.8%
change in vivo at 300 mg/kg ([4]; + 3 hrs, read-out: Action (variation of paw volume increase vs controls)): -17%
change in vivo at 300 mg/kg ([4]; + 4 hrs, read-out: % increase in volume of the paw, mean (m)): 51.5%
change in vivo at 300 mg/kg ([4]; + 4 hrs, read-out: Action (variation of paw volume increase vs controls)): -15%
change in vivo at 300 mg/kg ([4]; + 6 hrs, read-out: % increase in volume of the paw, mean (m)): 54.8%
change in vivo at 300 mg/kg ([4]; + 6 hrs, read-out: Action (variation of paw volume increase vs controls)): -4%
change in vivo at 300 mg/kg [4, 7]: -12%

C=C(CC(=O)c1ccc(-c2ccccc2)cc1)C(=O)O [F 1377, 2-methylene 4-oxo 4-(paraphenylphenyl) butyric acid]
Solubility in N-methyl pyrrolidone [2]: 15%
Solubility in dimethyl sulfoxide [2]: 10%
Solubility in ether ([2]; in words): insoluble
Solubility in propylene glycol (in words) ([2]; propylene glycol, in words): insoluble
Solubility in water in the form of sodium salt (in words) ([2]; sodium salt, water, in words): insoluble
Solubility in water ([2]; water, in words): insoluble
% Decrease (of writhings) [5]: 68,6%
Mean No. of Writhings [5]: 8,00
LD50 at 48 h [3]: > 2000 mg/kg
% var. / action (variation of paw volume increase vs controls) ([4]; 3 hrs): -37%
% var. / action (variation of paw volume increase vs controls) ([4]; 4 hrs): -37%
% var. / action (variation of paw volume increase vs controls) ([4]; 6 hrs): -18%
change in vivo at 75 mg/kg [4, 8]: 28.8%
change in vivo at 75 mg/kg [4, 9]: 30.5%
change in vivo at 75 mg/kg [4, 10]: 37.2%
change in vivo at 75 mg/kg [4, 7]: -30%
change in vivo at 200 mg/kg [4, 11]: 27.4%
change in vivo at 200 mg/kg [4, 12]: -46%
change in vivo at 200 mg/kg [4, 13]: 28%
change in vivo at 200 mg/kg [4, 14]: -43%
change in vivo at 200 mg/kg [4, 15]: 28.4%
change in vivo at 200 mg/kg [4, 16]: -32%
change in vivo at 200 mg/kg ([4]; 200 mg/kg oral, read-out: % mean variation of the volume of the paw at 3, 4 and 6 hrs): -40%

C=C(CC(=O)c1ccc(-c2ccccc2Cl)cc1)C(=O)O [F 1379, 2-methylene 4-oxo 4-(4'-orthochlorophenylphenyl) butyric acid]
Total blood cholesterol, M [1]: 0,62
Solubility in NN-dimethyl acetamide [2]: 25%
Solubility in dimethyl sulfoxide [2]: 20%
Solubility in ethyl alcohol [2]: 1%
Solubility in water ([2]; water, in words, listed as Example 6): insoluble
% Decrease (of writhings) [6]: 18,4%
Mean No. of Writhings [6]: 31,8
LD50 at 48 h [3]: 1500 mg/kg
% increase in volume of the paw, cumulative (m) ([4]; 30 mg/kg oral): 179,6%
Action, cumulative ([4]; 30 mg/kg oral): -11,7%
% increase in volume of the paw, cumulative (m) ([4]; 50 mg/kg oral): 106,1%
Action, cumulative ([4]; 50 mg/kg oral): -44,4%
% increase in volume of the paw, cumulative (m) ([4]; 100 mg/kg oral): 83,6%
Action, cumulative ([4]; 100 mg/kg oral): -56,2%
% increase in volume of the paw, cumulative (m) ([4]; 200 mg/kg oral): 77,5%
Action, cumulative ([4]; 200 mg/kg oral): -59,4%
change in vivo at 30 mg/kg ([4]; 30 mg/kg oral, + 3 hrs, read-out: % increase in volume of the paw, mean (m)): 58.4%
change in vivo at 30 mg/kg ([4]; 30 mg/kg oral, + 3 hrs, read-out: Action (variation of paw volume increase vs controls)): -17.6%
change in vivo at 30 mg/kg ([4]; 30 mg/kg oral, + 4 hrs, read-out: % increase in volume of the paw, mean (m)): 60.1%
change in vivo at 30 mg/kg ([4]; 30 mg/kg oral, + 4 hrs, read-out: Action (variation of paw volume increase vs controls)): -9.6%
change in vivo at 30 mg/kg ([4]; 30 mg/kg oral, + 6 hrs, read-out: % increase in volume of the paw, mean (m)): 61.1%
change in vivo at 30 mg/kg ([4]; 30 mg/kg oral, + 6 hrs, read-out: Action (variation of paw volume increase vs controls)): -7%
change in vivo at 50 mg/kg ([4]; 50 mg/kg oral, + 3 hrs, read-out: % increase in volume of the paw, mean (m)): 24.4%
change in vivo at 50 mg/kg ([4]; 50 mg/kg oral, + 3 hrs, read-out: Action (variation of paw volume increase vs controls)): -58.2%
change in vivo at 50 mg/kg ([4]; 50 mg/kg oral, + 4 hrs, read-out: % increase in volume of the paw, mean (m)): 34.4%
change in vivo at 50 mg/kg ([4]; 50 mg/kg oral, + 4 hrs, read-out: Action (variation of paw volume increase vs controls)): -47%
change in vivo at 50 mg/kg ([4]; 50 mg/kg oral, + 6 hrs, read-out: % increase in volume of the paw, mean (m)): 47.4%
change in vivo at 50 mg/kg ([4]; 50 mg/kg oral, + 6 hrs, read-out: Action (variation of paw volume increase vs controls)): -29.7%
change in vivo at 100 mg/kg ([4]; 100 mg/kg oral, + 3 hrs, read-out: % increase in volume of the paw, mean (m)): 18.7%
change in vivo at 100 mg/kg ([4]; 100 mg/kg oral, + 3 hrs, read-out: Action (variation of paw volume increase vs controls)): -67.9%
change in vivo at 100 mg/kg ([4]; 100 mg/kg oral, + 4 hrs, read-out: % increase in volume of the paw, mean (m)): 26.1%
change in vivo at 100 mg/kg ([4]; 100 mg/kg oral, + 4 hrs, read-out: Action (variation of paw volume increase vs controls)): -59.9%
change in vivo at 100 mg/kg ([4]; 100 mg/kg oral, + 6 hrs, read-out: % increase in volume of the paw, mean (m)): 38.8%
change in vivo at 100 mg/kg ([4]; 100 mg/kg oral, + 6 hrs, read-out: Action (variation of paw volume increase vs controls)): -42.5%
change in vivo at 200 mg/kg [4, 11]: 19.6%
change in vivo at 200 mg/kg [4, 12]: -66.4%
change in vivo at 200 mg/kg [4, 13]: 25.1%
change in vivo at 200 mg/kg [4, 14]: -61.3%
change in vivo at 200 mg/kg [4, 15]: 32.8%
change in vivo at 200 mg/kg [4, 16]: -51.3%

CC(=CC(=O)c1ccc(-c2ccccc2Cl)cc1)C(=O)O [F 1439, 2-methyl 4-oxo 4-(4'-O-chlorophenylphenyl) 2-butenoic acid]
Total blood cholesterol, M [1]: 0,67
Solubility in N-methyl pyrrolidone [2]: 25%
Solubility in chloroform (in words) ([2]; chloroform, in words): Soluble
Solubility in NN-dimethyl acetamide [2]: 20%
Solubility in ether ([2]; in words): Soluble
Solubility in water ([2]; water, in words): insoluble
LD50 at 48 h [3]: 2370 mg/kg
% var. / action (variation of paw volume increase vs controls) ([4]; 3 hrs): -36%
% var. / action (variation of paw volume increase vs controls) ([4]; 4 hrs): -33%
% var. / action (variation of paw volume increase vs controls) ([4]; 6 hrs): -28%
change in vivo at 75 mg/kg [4, 8]: 38%
change in vivo at 75 mg/kg [4, 9]: 40%
change in vivo at 75 mg/kg [4, 10]: 40%
change in vivo at 75 mg/kg [4, 7]: -32%
